Data reported in PubChem BioAssay (NCI).
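In this assay, cells in 96-well plates receive the compound at five concentrations for 48 hours. Endpoints are linearly interpolated between the surrounding concentrations. TGI marks complete inhibition of growth.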

Key:
Assay in all cases: DTP human tumour cell line panel, 48 h
[1] = system: NCI-H23 lung
[2] = system: HT29 colon
[3] = system: SK-OV-3 ovarian
[4] = system: SN12C renal
[5] = system: MDA-MB-435
[6] = system: SW-620 colon
[7] = system: HCT-116 colon
[8] = system: IGROV1 ovarian
[9] = system: SK-MEL-28 melanoma
[10] = system: SR leukemia
[11] = system: HS 578T breast
[12] = system: CCRF-CEM leukemia
[13] = system: HOP-62 NSCLC
[14] = system: HOP-92 NSCLC
[15] = system: KM12 colon
[16] = system: M14 melanoma
[17] = system: UO-31 renal
[18] = system: NCI/ADR-RES ovarian
[19] = system: U251 CNS
[20] = system: SK-MEL-2 melanoma
[21] = system: ACHN renal
[22] = system: BT-549 breast
[23] = system: OVCAR-3 ovarian
[24] = system: SNB-75 CNS
[25] = system: DU-145 prostate
[26] = system: SF-295 CNS
[27] = system: SF-539 CNS
[28] = system: HL-60(TB) leukemia
[29] = system: SNB-19 CNS
[30] = system: PC-3 prostate
[31] = system: OVCAR-5 ovarian
[32] = system: MDA-N
[33] = system: K-562 leukemia
[34] = system: TK-10 renal
[35] = system: MDA-MB-231 breast
[36] = system: UACC-257 melanoma
[37] = system: RXF 393 renal
[38] = system: COLO 205 colon
[39] = system: 786-0 renal
[40] = system: OVCAR-8 ovarian
[41] = system: HCC-2998 colon
[42] = system: RPMI-8226 leukemia
[43] = system: SF-268 CNS
[44] = system: MOLT-4 leukemia
[45] = system: CAKI-1 renal
[46] = system: LOX IMVI melanoma
[47] = system: UACC-62 melanoma
[48] = system: SK-MEL-5 melanoma
[49] = system: A498 renal
[50] = system: NCI-H522 lung
[51] = system: MALME-3M melanoma
[52] = system: NCI-H460 lung
[53] = system: EKVX NSCLC
[54] = system: A549 NSCLC
[55] = system: T-47D breast
[56] = system: MCF7 breast
[57] = system: HCT-15 colon
[58] = system: OVCAR-4 ovarian
[59] = system: NCI-H226 lung

CC(=O)OCCOCn1cc(C=O)c2ccccc21
TGI [1]: > 100 µM | TGI [2]: > 100 µM | TGI [3]: > 100 µM | TGI [4]: > 100 µM | TGI [5]: > 100 µM | TGI [6]: > 100 µM | TGI [7]: > 100 µM | TGI [8]: > 100 µM | TGI [9]: > 100 µM | TGI [10]: > 100 µM | TGI [11]: > 100 µM | TGI [12]: > 100 µM | TGI [13]: > 100 µM | TGI [14]: > 100 µM | TGI [15]: > 100 µM | TGI [16]: > 100 µM | TGI [17]: > 100 µM | TGI [18]: > 100 µM | TGI [19]: > 100 µM | TGI [20]: > 100 µM | TGI [21]: > 100 µM | TGI [22]: > 100 µM | TGI [23]: > 100 µM | TGI [24]: > 100 µM | TGI [25]: > 100 µM | TGI [26]: > 100 µM | TGI [27]: > 100 µM | TGI [28]: > 100 µM | TGI [29]: > 100 µM | TGI [30]: > 100 µM | TGI [31]: > 100 µM | TGI [32]: > 100 µM | TGI [33]: > 100 µM | TGI [34]: > 100 µM | TGI [35]: > 100 µM | TGI [36]: > 100 µM | TGI [37]: > 100 µM | TGI [38]: > 100 µM | TGI [39]: > 100 µM | TGI [40]: > 100 µM | TGI [41]: > 100 µM | TGI [42]: > 100 µM | TGI [43]: > 100 µM | TGI [44]: > 100 µM | TGI [45]: > 100 µM | TGI [46]: > 100 µM | TGI [47]: > 100 µM | TGI [48]: > 100 µM | TGI [49]: 3.89 µM | TGI [50]: > 100 µM | TGI [51]: > 100 µM | TGI [52]: > 100 µM | TGI [53]: > 100 µM | TGI [54]: > 100 µM | TGI [55]: > 100 µM | TGI [56]: > 100 µM | TGI [57]: > 100 µM

N#Cc1c(C#N)c(SSc2c(C#N)c(C#N)c(N)n2-c2ccc(F)cc2)n(-c2ccc(F)cc2)c1N
TGI [1]: 14.3 µM | TGI [2]: 36.5 µM | TGI [3]: 31.4 µM | TGI [4]: 31.5 µM | TGI [5]: 19.2 µM | TGI [6]: 5.59 µM | TGI [7]: 3.38 µM | TGI [8]: 37.9 µM | TGI [58]: > 100 µM | TGI [9]: 19.9 µM | TGI [10]: 1.98 µM | TGI [11]: > 58.3 µM | TGI [12]: 4.62 µM | TGI [13]: 33.2 µM | TGI [14]: 7.82 µM | TGI [15]: 44.3 µM | TGI [16]: 9.07 µM | TGI [59]: 46 µM | TGI [17]: 3.87 µM | TGI [18]: 59.4 µM | TGI [19]: 40.1 µM | TGI [20]: 44 µM | TGI [21]: 8.55 µM | TGI [22]: 7.2 µM | TGI [23]: 6.92 µM | TGI [24]: 32.6 µM | TGI [25]: 30.6 µM | TGI [26]: 31.8 µM | TGI [27]: 35.6 µM | TGI [28]: 4.44 µM | TGI [29]: 42.6 µM | TGI [30]: 33.3 µM | TGI [31]: 30.9 µM | TGI [32]: 10.8 µM | TGI [34]: 8.27 µM | TGI [35]: 37.6 µM | TGI [36]: 32.5 µM | TGI [37]: 8.48 µM | TGI [38]: 3.76 µM | TGI [39]: 3.22 µM | TGI [40]: 32.4 µM | TGI [41]: 45.3 µM | TGI [43]: 48.2 µM | TGI [44]: 2.99 µM | TGI [45]: 21.1 µM | TGI [46]: 59.9 µM | TGI [47]: 31.7 µM | TGI [48]: 31.1 µM | TGI [49]: 18.9 µM | TGI [50]: 4.11 µM | TGI [51]: 3.28 µM | TGI [52]: 41.2 µM | TGI [53]: 5.13 µM | TGI [54]: 36.7 µM | TGI [55]: 7.96 µM | TGI [56]: > 24.8 µM | TGI [57]: 4.25 µM
